The experiment concerns the target Nurr1 receptor (Homo sapiens, UniProt P43354). Description: Transactivation of a Nurr1 responsive reporter gene in a midbrain dopaminergic cell line. Format: cell-based. The note with it: read-out: EC50 of increase of reporter gene activity. An excerpt:
The activity of the agents of the invention at the Nurr1 receptor can be determined in vitro in cellular assays:
Induction of the biological activity of the Nurr1 receptor by the agents of the invention can be measured by the transactivation of a Nurr1 responsive reporter gene in a midbrain dopaminergic cell line. The assay is based on the transcription promoting effect of Nurr1. The reporter gene can be activated both by Nurr1 monomers and Nurr1/RXR heterodimers. RXR is a frequent heterodimerisation partner of nuclear receptors and it has been shown that Nurr1 can form heterodimers with RXR (Zetterström RH et al. Mol. Endocrinol. 1996; 10:1656–1666).

Chain of Nurr1 receptor (P43354 whole entry): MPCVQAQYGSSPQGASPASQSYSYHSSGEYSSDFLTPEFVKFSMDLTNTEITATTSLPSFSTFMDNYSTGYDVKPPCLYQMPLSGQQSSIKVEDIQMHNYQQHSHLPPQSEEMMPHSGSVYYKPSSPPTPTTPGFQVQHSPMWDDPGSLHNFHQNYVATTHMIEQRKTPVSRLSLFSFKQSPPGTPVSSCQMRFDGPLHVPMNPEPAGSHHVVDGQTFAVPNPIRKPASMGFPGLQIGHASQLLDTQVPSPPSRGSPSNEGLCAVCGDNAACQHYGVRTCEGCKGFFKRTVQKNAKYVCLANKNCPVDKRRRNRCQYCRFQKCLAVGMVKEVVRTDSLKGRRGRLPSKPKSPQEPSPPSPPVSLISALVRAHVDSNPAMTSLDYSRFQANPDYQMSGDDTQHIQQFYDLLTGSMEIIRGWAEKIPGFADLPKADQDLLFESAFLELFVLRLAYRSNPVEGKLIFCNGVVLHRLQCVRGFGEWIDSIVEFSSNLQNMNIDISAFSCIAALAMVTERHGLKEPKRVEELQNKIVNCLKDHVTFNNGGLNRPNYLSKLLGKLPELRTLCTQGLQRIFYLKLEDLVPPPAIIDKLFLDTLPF

In general, EC50 refers to the concentration needed to bring the measured effect to its halfway point. On to `COCCOCc1ccc(-c2cc3onc(-c4ccccc4)c3c(=O)n2C)cc1` [Example 7, 6-[4-(2-Methoxy-ethoxymethyl)-phenyl]-5-methyl-3-phenyl-5H-isoxazolo[4,5-c]pyridin-4-one], for which the EC50 stood at 40 nM.
Regarding `CN(C)Cc1ccc(-c2cc3onc(-c4ccccc4)c3c(=O)[nH]2)cc1` [Example 11, 6-(4-Dimethylaminomethyl-phenyl)-3-phenyl-5H-isoxazolo[4,5-c]pyridin-4-one], the EC50 turned out to be 70 nM.

The values above are taken from patent US7087756B2, “Isoxazolopyridinones” (Novartis AG, priority 2001, dated 2006).
